According to US20050197350A1, “Novel quinoline, tetrahydroquinazoline, and pyrimidine derivatives and methods of treatment related to the use thereof” (TAISHO PHARMACEUTICAL CO., LTD., priority 2003, published 2005):

Test system: MCH receptors
Experiment: MCH receptor activity class (method not given)
Conditions: class by percent of control at 10^-7 M or IC50

Q: `CN(C)c1cc(N[C@H]2CC[C@@H](CNCCCC#Cc3ccccc3)CC2)nc2ccccc12` [compound 1469] was tested. Which class did it give?
A: The class was 3 (Class 3 The value of percent of control at 10^−7 M was more than 60% or the value of IC50 was more than 200 nM.).

Q: For `COc1ccccc1CCNC[C@H]1CC[C@@H](Nc2cc(N(C)C)c3ccccc3n2)CC1` [compound 1470], which class is on record?
A: Its class is 3 (Class 3 The value of percent of control at 10^−7 M was more than 60% or the value of IC50 was more than 200 nM.).

Q: With `CN(C)c1cc(N[C@H]2CC[C@@H](CNCCCOc3ccccc3)CC2)nc2ccccc12` [compound 1471] as the molecule, how does the class read?
A: The class was 3 (Class 3 The value of percent of control at 10^−7 M was more than 60% or the value of IC50 was more than 200 nM.).

Q: Which class does the source give for `CN(C)c1cc(N[C@H]2CC[C@@H](CNCc3c(F)c(F)cc(F)c3F)CC2)nc2ccccc12` [compound 1472] here?
A: Its class is 3 (Class 3 The value of percent of control at 10^−7 M was more than 60% or the value of IC50 was more than 200 nM.).

Q: Which class does the source give for `CN(C)c1cc(N[C@H]2CC[C@@H](CNCc3cc(Cl)ccc3Cl)CC2)nc2ccccc12` [compound 1473] here?
A: The class was 3 (Class 3 The value of percent of control at 10^−7 M was more than 60% or the value of IC50 was more than 200 nM.).

Q: For `COc1ccc(Cl)cc1CNC[C@H]1CC[C@@H](Nc2cc(N(C)C)c3ccccc3n2)CC1` [compound 1474], which class is on record?
A: The class was 3 (Class 3 The value of percent of control at 10^−7 M was more than 60% or the value of IC50 was more than 200 nM.).

Q: How did the class turn out when `COc1cc(Cl)ccc1CNC[C@H]1CC[C@@H](Nc2cc(N(C)C)c3ccccc3n2)CC1` [compound 1475] was run?
A: The class was 3 (Class 3 The value of percent of control at 10^−7 M was more than 60% or the value of IC50 was more than 200 nM.).

Q: For `Cc1ccc(CNC[C@H]2CC[C@@H](Nc3cc(N(C)C)c4ccccc4n3)CC2)cc1I` [compound 1476], which class is on record?
A: The class was 3 (Class 3 The value of percent of control at 10^−7 M was more than 60% or the value of IC50 was more than 200 nM.).

Q: Which class does the source give for `C[C@@H](CNC[C@H]1CC[C@@H](Nc2cc(N(C)C)c3ccccc3n2)CC1)N(Cc1ccccc1)Cc1ccccc1` [compound 1477] here?
A: The class was 3 (Class 3 The value of percent of control at 10^−7 M was more than 60% or the value of IC50 was more than 200 nM.).

Q: With `CCCc1c(CNC[C@H]2CC[C@@H](Nc3cc(N(C)C)c4ccccc4n3)CC2)cnn1-c1ccccc1` [compound 1478] as the molecule, how does the class read?
A: Its class is 1 (Class 1: The value of percent of control at 10^−7 M was less than 40% or the value of IC50 was less than 50 nM.).

Q: Which class does the source give for `CCCc1c(CNC[C@H]2CC[C@@H](Nc3cc(N(C)C)c4ccccc4n3)CC2)cnn1-c1ccc(Cl)cc1` [compound 1479] here?
A: Its class is 1 (Class 1: The value of percent of control at 10^−7 M was less than 40% or the value of IC50 was less than 50 nM.).

Q: Which class does the source give for `CN(C)c1cc(N[C@H]2CC[C@@H](CNCCCCc3ccc([N+](=O)[O-])cc3)CC2)nc2ccccc12` [compound 1480] here?
A: The class was 3 (Class 3 The value of percent of control at 10^−7 M was more than 60% or the value of IC50 was more than 200 nM.).

Q: With `CN(C)c1nc(N[C@H]2CC[C@@H](NCCc3ccc(Br)cc3)CC2)nc2c1CCCC2` [compound 1481] as the molecule, how does the class read?
A: Its class is 3 (Class 3 The value of percent of control at 10^−7 M was more than 60% or the value of IC50 was more than 200 nM.).

Q: For `CN(C)c1nc(N[C@H]2CC[C@@H](NCCc3cccc(Cl)c3)CC2)nc2c1CCCC2` [compound 1482], which class is on record?
A: Its class is 3 (Class 3 The value of percent of control at 10^−7 M was more than 60% or the value of IC50 was more than 200 nM.).

Q: `COC(CN[C@H]1CC[C@@H](Nc2nc3c(c(N(C)C)n2)CCCC3)CC1)c1ccccc1` (stereo partly shown) [compound 1483] was tested. Which class did it give?
A: Its class is 3 (Class 3 The value of percent of control at 10^−7 M was more than 60% or the value of IC50 was more than 200 nM.).

Q: Which class does the source give for `COC(CNC1CCC(Nc2nc3c(c(N(C)C)n2)CCCC3)CC1)c1ccccc1` (stereo not shown) [compound 1484] here?
A: Its class is 3 (Class 3 The value of percent of control at 10^−7 M was more than 60% or the value of IC50 was more than 200 nM.).

Q: How did the class turn out when `Cc1c(C)c(C)c(CNC2CCC(Nc3nc4c(c(N(C)C)n3)CCCC4)CC2)c(C)c1C` (stereo not shown) [compound 1485] was run?
A: The class was 2 (Class 2: The value of percent of control at 10^−7 M was from 40% to 60% or the value of IC′50 was from 50 nM to 200 nM.).

Q: For `CCOc1cccc(CN[C@H]2CC[C@@H](Nc3nc4c(c(N(C)C)n3)CCCC4)CC2)c1` [compound 1486], which class is on record?
A: The class was 3 (Class 3 The value of percent of control at 10^−7 M was more than 60% or the value of IC50 was more than 200 nM.).

Q: Which class does the source give for `CN(C)c1nc(N[C@H]2CC[C@@H](NC[C@@H](COCc3ccccc3)OCc3ccccc3)CC2)nc2c1CCCC2` [compound 1487] here?
A: Its class is 3 (Class 3 The value of percent of control at 10^−7 M was more than 60% or the value of IC50 was more than 200 nM.).

Q: `COc1cc2ccccc2cc1CN[C@H]1CC[C@@H](Nc2nc3c(c(N(C)C)n2)CCCC3)CC1` [compound 1488] was tested. Which class did it give?
A: The class was 3 (Class 3 The value of percent of control at 10^−7 M was more than 60% or the value of IC50 was more than 200 nM.).

Q: For `Cc1cccc(N(CCC#N)CCN[C@H]2CC[C@@H](Nc3nc4c(c(N(C)C)n3)CCCC4)CC2)c1` [compound 1489], which class is on record?
A: The class was 2 (Class 2: The value of percent of control at 10^−7 M was from 40% to 60% or the value of IC′50 was from 50 nM to 200 nM.).

Q: With `CN(C)c1nc(N[C@H]2CC[C@@H](NCCN(CCC#N)c3ccccc3)CC2)nc2c1CCCC2` [compound 1490] as the molecule, how does the class read?
A: The class was 1 (Class 1: The value of percent of control at 10^−7 M was less than 40% or the value of IC50 was less than 50 nM.).

Q: `Cc1ccc(S(=O)(=O)N[C@H](CN[C@H]2CC[C@@H](Nc3nc4c(c(N(C)C)n3)CCCC4)CC2)Cc2ccccc2)cc1` [compound 1491] was tested. Which class did it give?
A: The class was 1 (Class 1: The value of percent of control at 10^−7 M was less than 40% or the value of IC50 was less than 50 nM.).

Q: With `COc1cc(CCN[C@H]2CC[C@@H](Nc3nc4c(c(N(C)C)n3)CCCC4)CC2)cc(OC)c1` [compound 1493] as the molecule, how does the class read?
A: The class was 2 (Class 2: The value of percent of control at 10^−7 M was from 40% to 60% or the value of IC′50 was from 50 nM to 200 nM.).

Q: `CN(C)c1nc(N[C@H]2CC[C@@H](NCCc3c(-c4ccccc4)[nH]c4ccccc34)CC2)nc2c1CCCC2` [compound 1494] was tested. Which class did it give?
A: The class was 3 (Class 3 The value of percent of control at 10^−7 M was more than 60% or the value of IC50 was more than 200 nM.).

Q: Which class does the source give for `CN(C)c1nc(N[C@H]2CC[C@@H](NCC(c3ccc(Cl)cc3)c3ccc(Cl)cc3)CC2)nc2c1CCCC2` [compound 1495] here?
A: Its class is 3 (Class 3 The value of percent of control at 10^−7 M was more than 60% or the value of IC50 was more than 200 nM.).

Q: For `CN(C)c1nc(N[C@H]2CC[C@@H](NCC3CN(C(c4ccccc4)c4ccccc4)C3)CC2)nc2c1CCCC2` [compound 1497], which class is on record?
A: The class was 1 (Class 1: The value of percent of control at 10^−7 M was less than 40% or the value of IC50 was less than 50 nM.).

Q: For `CN(C)c1nc(N[C@H]2CC[C@@H](CNCCc3ccc(Br)cc3)CC2)nc2c1CCCC2` [compound 1498], which class is on record?
A: The class was 3 (Class 3 The value of percent of control at 10^−7 M was more than 60% or the value of IC50 was more than 200 nM.).

Q: Which class does the source give for `COc1ccc(CCCCNC[C@H]2CC[C@@H](Nc3nc4c(c(N(C)C)n3)CCCC4)CC2)cc1` [compound 1499] here?
A: Its class is 3 (Class 3 The value of percent of control at 10^−7 M was more than 60% or the value of IC50 was more than 200 nM.).

Q: `CN(C)c1nc(N[C@H]2CC[C@@H](CNCCCCCCc3ccccc3)CC2)nc2c1CCCC2` [compound 1500] was tested. Which class did it give?
A: The class was 3 (Class 3 The value of percent of control at 10^−7 M was more than 60% or the value of IC50 was more than 200 nM.).

Q: With `Cc1cc(C)c(CCNC[C@H]2CC[C@@H](Nc3nc4c(c(N(C)C)n3)CCCC4)CC2)c(C)c1` [compound 1501] as the molecule, how does the class read?
A: The class was 3 (Class 3 The value of percent of control at 10^−7 M was more than 60% or the value of IC50 was more than 200 nM.).

Q: With `CN(C)c1nc(N[C@H]2CC[C@@H](CNCCCCCCCCc3ccccc3)CC2)nc2c1CCCC2` [compound 1502] as the molecule, how does the class read?
A: Its class is 3 (Class 3 The value of percent of control at 10^−7 M was more than 60% or the value of IC50 was more than 200 nM.).

Q: With `CN(C)c1nc(N[C@H]2CC[C@@H](CNCCc3ccc(C(C)(C)C)cc3)CC2)nc2c1CCCC2` [compound 1503] as the molecule, how does the class read?
A: The class was 3 (Class 3 The value of percent of control at 10^−7 M was more than 60% or the value of IC50 was more than 200 nM.).

Q: `COc1ccccc1CCNC[C@H]1CC[C@@H](Nc2nc3c(c(N(C)C)n2)CCCC3)CC1` [compound 1504] was tested. Which class did it give?
A: Its class is 3 (Class 3 The value of percent of control at 10^−7 M was more than 60% or the value of IC50 was more than 200 nM.).

Q: With `CN(C)c1nc(N[C@H]2CC[C@@H](CNCCCOc3ccccc3)CC2)nc2c1CCCC2` [compound 1505] as the molecule, how does the class read?
A: The class was 3 (Class 3 The value of percent of control at 10^−7 M was more than 60% or the value of IC50 was more than 200 nM.).

Q: With `COc1ccc(Cl)cc1CNC[C@H]1CC[C@@H](Nc2nc3c(c(N(C)C)n2)CCCC3)CC1` [compound 1506] as the molecule, how does the class read?
A: The class was 3 (Class 3 The value of percent of control at 10^−7 M was more than 60% or the value of IC50 was more than 200 nM.).

Q: For `COc1cc(Cl)ccc1CNC[C@H]1CC[C@@H](Nc2nc3c(c(N(C)C)n2)CCCC3)CC1` [compound 1507], which class is on record?
A: The class was 3 (Class 3 The value of percent of control at 10^−7 M was more than 60% or the value of IC50 was more than 200 nM.).

Q: How did the class turn out when `Cc1ccc(CNC[C@H]2CC[C@@H](Nc3nc4c(c(N(C)C)n3)CCCC4)CC2)cc1I` [compound 1508] was run?
A: The class was 3 (Class 3 The value of percent of control at 10^−7 M was more than 60% or the value of IC50 was more than 200 nM.).

Q: How did the class turn out when `C[C@@H](CNC[C@H]1CC[C@@H](Nc2nc3c(c(N(C)C)n2)CCCC3)CC1)N(Cc1ccccc1)Cc1ccccc1` [compound 1509] was run?
A: Its class is 3 (Class 3 The value of percent of control at 10^−7 M was more than 60% or the value of IC50 was more than 200 nM.).

Q: How did the class turn out when `CCCc1c(CNC[C@H]2CC[C@@H](Nc3nc4c(c(N(C)C)n3)CCCC4)CC2)cnn1-c1ccccc1` [compound 1510] was run?
A: Its class is 1 (Class 1: The value of percent of control at 10^−7 M was less than 40% or the value of IC50 was less than 50 nM.).

Q: `CCCc1c(CNC[C@H]2CC[C@@H](Nc3nc4c(c(N(C)C)n3)CCCC4)CC2)cnn1-c1ccc(Cl)cc1` [compound 1511] was tested. Which class did it give?
A: The class was 1 (Class 1: The value of percent of control at 10^−7 M was less than 40% or the value of IC50 was less than 50 nM.).

Q: For `CN(C)c1nc(N[C@H]2CC[C@@H](CNCCCCc3ccc([N+](=O)[O-])cc3)CC2)nc2c1CCCC2` [compound 1512], which class is on record?
A: The class was 3 (Class 3 The value of percent of control at 10^−7 M was more than 60% or the value of IC50 was more than 200 nM.).

Q: How did the class turn out when `CN(C)c1ccnc(N[C@H]2CC[C@@H](NCCc3ccc(Br)cc3)CC2)n1` [compound 1513] was run?
A: The class was 3 (Class 3 The value of percent of control at 10^−7 M was more than 60% or the value of IC50 was more than 200 nM.).
